How the values were obtained:
Assay in all cases: relative viability (nuclei count vs DMSO), 5 days (fraction); higher = more cells survive
Bromopyruvate = compound: C(C(=O)C(=O)O)Br [Bromopyruvate]
In short: (§1)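 A plate was accepted only when its control CV was below 25% and the cells had doubled at least once. Viability is defined from nuclear counts as treated wells divided by vehicle wells, with the median taken across plates. That median covers lung cancer cell lines grown in 1536-well plates, dosed by pinning at five √10-spaced library-drug concentrations, and counted in MetaXpress from 4× Hoechst images after 5 days.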

Bicalutamide = compound: CC(O)(CS(=O)(=O)c1ccc(F)cc1)C(=O)Nc1ccc(C#N)c(C(F)(F)F)c1 [Bicalutamide]
In short: as §1

[1] = compound: C(C(=O)C(=O)O)Br [Bromopyruvate] + COc1cc2c(Oc3ccc(NC(=O)C4(C(=O)Nc5ccc(F)cc5)CC4)cc3F)ccnc2cc1OCCCN1CCOCC1 [Foretinib] (partner 0.25 µM)
In short: (§2)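 Lung cancer cell lines, seeded in 1536-well plates, were treated the following day by pin tool with a single drug or with five library-drug doses (not always all listed) in √10 steps on top of a fixed anchor-drug dose. Cells were fixed and nuclei stained in one step after 5 days, and nuclei were counted. Relative viability is the nuclei count for treated wells divided by that for vehicle wells, reported as medians of duplicate plates.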

[2] = compound: C(C(=O)C(=O)O)Br [Bromopyruvate] + CS(=O)(=O)CCNCc1ccc(-c2ccc3ncnc(Nc4ccc(OCc5cccc(F)c5)c(Cl)c4)c3c2)o1 [Lapatinib] (partner 2 µM)
In short: as §2

UMC-11 showed a relative viability (Bromopyruvate; 1 µM) of 1.03, a relative viability (Bromopyruvate; 3.162 µM) of 0.989 and a relative viability (Bromopyruvate; 10 µM) of 0.908. For the same cell line, the relative viability (Bromopyruvate; 31.62 µM) was 0.958, the relative viability (Bromopyruvate; 100 µM) was 1 and the relative viability (Bicalutamide; 0.08 µM) was 0.958. It also gave a relative viability (Bicalutamide; 0.253 µM) of 0.909, a relative viability (Bicalutamide; 0.8 µM) of 1.17 and a relative viability (Bicalutamide; 2.53 µM) of 0.938. It also gave a relative viability ([1]; first compound 1 µM) of 1.05, a relative viability ([1]; first compound 3.162 µM) of 1.02 and a relative viability ([1]; first compound 10 µM) of 1.04. It also gave a relative viability ([1]; first compound 31.62 µM) of 0.989, a relative viability ([1]; first compound 100 µM) of 0.987 and a relative viability ([2]; first compound 1 µM) of 1.15. The relative viability ([2]; first compound 3.162 µM) was 0.976, the relative viability ([2]; first compound 10 µM) was 1.11 and the relative viability ([2]; first compound 31.62 µM) was 0.966. For the same cell line, the relative viability ([2]; first compound 100 µM) was 1.03.
